Assay results reported in PMC8226262, “Licarin-B Exhibits Activity Against the Toxoplasma gondii RH Strain by Damaging Mitochondria and Activating Autophagy” (Frontiers in Cell and Developmental Biology, 2021).
Like-named read-outs stand apart in the source and are kept apart here.

Key:
HFF cells = assay: Cytotoxicity assay (CCK-8); assay type: cell-based, Human
Procedure: In brief, HFFs (1 × 10^4 cells/well) were seeded in 96-well plates in a monolayer and incubated with different concentrations of the compounds in DMEM with 1% FBS; DMEM without compound was used as a control. After 24 h, CCK-8 solution (Biomake, United States) was added, and absorbance was measured at 450 nm using a Multiskan GO instrument (Thermo Fisher Scientific, MA, United States). The cell viability values are expressed as percentages of the control value (considered as 100% survival). […] Triplicate independent experiments were performed.

[1] = tested on: T. gondii tachyzoites (strain RH) in HFFs; assay: In vitro screening of anti-T. gondii activity (Giemsa staining, qPCR); assay type: cell-based, Toxoplasma gondii; settings: 24 h; for inhibition at 20 µg/mL: 20 μg/mL
Procedure: Human foreskin fibroblasts were seeded in 6-well plates and infected with 3 × 10^4 fresh T. gondii tachyzoites. After 8 h, the natural compounds in DMEM supplemented with 1% FBS were added. Sulfadiazine and pyrimethamine were included as positive drug controls. After incubation for 24 h, the cells were washed twice with PBS, stained with Giemsa, and observed by light microscopy. In addition, total DNA was isolated from the cells using DNAiso Reagent (Takara), and a 529-bp repeat element was amplified by quantitative polymerase chain reaction (qPCR) with the following primers: Tox-F (5′-AGGAGAGATATCAGGACTGTAG-3′), Tox-R (5′-GCGTCGTCTCGTCTAGATCG-3′), and the Taqman probe Tox-TP (6-Fam CCGGCTTGGCTGCTTTTCCT BHQ1), as described in a previous study ([Zhang J.L. et al., 2019]). The inhibition rates against T. gondii proliferation for the natural compounds at concentrations with no HFF toxicity were calculated, and the inhibition rate in each treatment group was presented as the % of the control group. The experiment was repeated three times.

[2] = tested on: T. gondii tachyzoite intracellular proliferation in HFFs; assay: Anti-proliferation activity of licarin-B (qPCR); assay type: cell-based, Toxoplasma gondii; settings: Toxoplasma gondii, 0.4 μg/mL, 24 h
Procedure: DMEM without drugs was used as a parasite control. […] After 24 h, the cells were washed twice with PBS, and total genomic DNA from the cells was obtained as described in a previous study ([Zhang J.L. et al., 2019]). […] The results represent the means ± standard deviations (SD) from at least three independent experiments. The EC50 of licarin-B for tachyzoite growth inhibition was plotted as a function of the compound concentration via non-linear curve analysis using SPSS 19.0 software (SPSS Inc., Chicago, IL, United States). The results of the anti-invasion and anti-proliferation tests, the in vivo assays of the survival rate and parasite burden and data comparisons between the parasite control and treatment groups were statistically analyzed by one-way analysis of variance (ANOVA) using SPSS software.

[3] = tested on: T. gondii invasion of HFFs; assay: Anti-invasion assessment in vitro (qPCR); assay type: cell-based, Toxoplasma gondii; settings: Toxoplasma gondii, 0.4 μg/mL, 2 h of infection, read-out: Anti-invasion inhibition rate
Procedure: Human foreskin fibroblasts were seeded in 6-well plates and incubated with different concentrations of licarin-B (4.5, 9, 13.5, 18, or 22.5 μg/mL), sulfadiazine (0.4 μg/mL, as a positive control) or without drugs in DMEM supplemented with 1% FBS and then infected with 3 × 10^6 fresh parasites per well. The anti-invasion capability of licarin-B was determined by qPCR after 2 h of infection, as described in a previous study ([Zhang J.L. et al., 2019]). Triplicate independent experiments were performed.

[4] = 80 μg/mL, T. gondii proliferation in HFFs
[5] = Toxoplasma gondii, T. gondii proliferation in HFFs, read-out: Mean inhibition rate (% of control)
[6] = Toxoplasma gondii, read-out: Mean inhibition rate (% of control)
[7] = Toxoplasma gondii, 4 μg/mL, T. gondii proliferation in HFFs, read-out: Mean inhibition rate (% of control)

## O=C(O)[C@@H](O)c1ccccc1 [L-mandelic acid]
HFF cells; CCK-8, 24 h, DMEM with 1% FBS
  Natural compound concentration range with no toxicity to HFF cells: 0.01 to 80 µg/mL
[1]; [4]
  Mean inhibition rate (% of control): 11.87 ± 2.84%

## CC1=CC(=O)C(C(C)C)CC1 (stereo not drawn) [Piperitone, piperitone]
HFF cells; human, 24 h
  Natural compound concentration range with no toxicity to HFF cells: 0.01 to 20 µg/mL
[1]; [5]
  inhibition at 20 µg/mL: 31.1 ± 1.97%

## C/C=C/c1cc(OC)c2c(c1)C(C)C(c1ccc(O)c(OC)c1)O2 (stereo not drawn) [Dehydrodiisoeugenol, dehydrodiisoeugenol]
[1]; [4]
  Mean inhibition rate (% of control): 8.14 ± 2.15%

## licorice glycosides
[1]; [4]
  Mean inhibition rate (% of control): 35.93 ± 4.78%

## O=C(O)[C@H](O)c1ccccc1 [D-mandelic acid]
HFF cells; CCK-8, 24 h, DMEM with 1% FBS
  Natural compound concentration range with no toxicity to HFF cells: 0.01 to 80 µg/mL
[1]; [4]
  Mean inhibition rate (% of control): 9.30 ± 3.76%

## CC1(C)O[C@H]2CC(=O)OC[C@]23[C@H]2CC[C@@]4(C)[C@H](c5ccoc5)OC(=O)[C@H]5O[C@]54[C@]2(C)C(=O)C[C@@H]13 [Limonin, limonin]
HFF cells; human, 24 h
  Natural compound concentration range with no toxicity to HFF cells: 0.01 to 80 µg/mL
[1]; Toxoplasma gondii, 80 μg/mL, T. gondii proliferation in HFFs, read-out: Mean inhibition rate (% of control)
  inhibition at 80 µg/mL: 72.2 ± 9.78%

## O=c1c(-c2ccc(O)cc2)coc2cc(O)cc(O)c12 [Genistein, genistein]
HFF cells; CCK-8, 24 h, DMEM with 1% FBS
  Natural compound concentration range with no toxicity to HFF cells: 0.01 to 40 µg/mL
[1]; [6]
  inhibition at 40 µg/mL: 22.3 ± 5.91%

## O=c1c(-c2ccc(O)cc2)coc2cc(O[C@@H]3O[C@H](CO)[C@@H](O)[C@H](O)[C@H]3O)cc(O)c12 [Genistin, genistin]
HFF cells; CCK-8, 24 h, DMEM with 1% FBS
  Natural compound concentration range with no toxicity to HFF cells: 0.01 to 32 µg/mL
[1]; Toxoplasma gondii, 32 μg/mL, T. gondii proliferation in HFFs, read-out: Mean inhibition rate (% of control)
  inhibition at 32 µg/mL: 26.3 ± 3.54%

## COc1cc2c(=O)c(-c3ccc(O)cc3)coc2cc1O [Glycitein, glycitein]
HFF cells; CCK-8, 24 h, DMEM with 1% FBS
  Natural compound concentration range with no toxicity to HFF cells: 0.01 to 40 µg/mL
[1]; Toxoplasma gondii, 40 μg/mL, T. gondii proliferation in HFFs, read-out: Mean inhibition rate (% of control)
  inhibition at 40 µg/mL: 8.11 ± 2.19%

## Cc1ccc(C(C)C)c(O)c1 [Thymol, thymol]
HFF cells; human, 24 h
  Natural compound concentration range with no toxicity to HFF cells: 0.01 to 16 µg/mL
[1]; Toxoplasma gondii, 16 μg/mL, T. gondii proliferation in HFFs, read-out: Mean inhibition rate (% of control)
  inhibition at 16 µg/mL: 25.7 ± 2.31%

## Nc1ccc(S(=O)(=O)Nc2ncccn2)cc1 [Sulfadiazine, reference compound]
[2]
  inhibition at 0.4 µg/mL: 40.8%
[3]
  inhibition at 0.4 µg/mL: 56.5%

## C=CCc1cc(OC)c2c(c1)OCO2 [Myristicin, myristicin]
HFF cells; CCK-8, 24 h, DMEM with 1% FBS
  Natural compound concentration range with no toxicity to HFF cells: 0.01 to 40 µg/mL
[1]; [6]
  inhibition at 40 µg/mL: 22.3 ± 3.46%

## CCCCCCCCCCCCCC(=O)OC [Methyl myristate, methyl myristate]
HFF cells; human, 24 h
  Natural compound concentration range with no toxicity to HFF cells: 0.01 to 160 µg/mL
[1]; Toxoplasma gondii, 160 μg/mL, T. gondii proliferation in HFFs, read-out: Mean inhibition rate (% of control)
  inhibition at 160 µg/mL: 7.65 ± 2.64%

## CCCCCCCCCCCCCC(=O)O [Myristic acid, myristic acid]
HFF cells; CCK-8, 24 h, DMEM with 1% FBS
  Natural compound concentration range with no toxicity to HFF cells: 0.01 to 20 µg/mL
[1]; [5]
  inhibition at 20 µg/mL: 26.3 ± 1.32%

## O=C(/C=C/c1ccc(O)cc1)c1ccc(O)cc1O [Isoliquiritigenin, isoliquiritigenin]
HFF cells; human, 24 h
  Natural compound concentration range with no toxicity to HFF cells: 0.01 to 4 µg/mL
[1]; [7]
  inhibition at 4 µg/mL: 42.8 ± 7.92%

## CC1(C)CC[C@]2(C(=O)O)CC[C@]3(C)C(=CC[C@@H]4[C@@]5(C)C[C@@H](O)[C@H](O)C(C)(C)[C@@H]5CC[C@]43C)[C@@H]2C1 [Maslinic acid, maslinic acid]
HFF cells; CCK-8, 24 h, DMEM with 1% FBS
  Natural compound concentration range with no toxicity to HFF cells: 0.01 to 4 µg/mL
[1]; [6]
  inhibition at 4 µg/mL: 65.4 ± 4.53%

## COc1c(/C=C/C(=O)c2ccc(O)cc2)ccc(O)c1CC=C(C)C [Licochalcone C, licochalcone C]
[1]; 4 μg/mL, T. gondii proliferation in HFFs
  Mean inhibition rate (% of control): 54.91 ± 4.85%

## O=C(/C=C/c1ccc(O)c(O)c1)O[C@@H]1C[C@](O)(C(=O)O)C[C@@H](O)[C@H]1O [Chlorogenic acid, chlorogenic acid]
HFF cells; human, 24 h
  Natural compound concentration range with no toxicity to HFF cells: 0.01 to 400 µg/mL
[1]; Toxoplasma gondii, 400 μg/mL, T. gondii proliferation in HFFs, read-out: Mean inhibition rate (% of control)
  inhibition at 400 µg/mL: 34.6 ± 2.77%

## COc1cc(O)ccc1/C=C/C(=O)c1ccc(O)cc1 [Echinatin, echinatin]
HFF cells; CCK-8, 24 h, DMEM with 1% FBS
  Natural compound concentration range with no toxicity to HFF cells: 0.01 to 4 µg/mL
[1]; [7]
  inhibition at 4 µg/mL: 63.1 ± 10.7%

## COc1c(/C=C/C(=O)c2ccc(O)cc2)ccc(O)c1O [Licochalcone B]
[1]; 16 μg/mL, T. gondii proliferation in HFFs
  Mean inhibition rate (% of control): 51.67 ± 6.71%
